From ChEMBL document CHEMBL2311389, “Pyrazole-based arylalkyne cathepsin S inhibitors. Part III: modification of P4 region” (Bioorg Med Chem Lett, 2013)
Values after ≈ are worked out from the molar mass of the structure shown.

Experiments:
Cathepsin S [1] = biological target: T1, Cathepsin S (Homo sapiens, UniProt P25774); assay: Inhibition of cathepsin S in human JY cells assessed as invariant chain-li degradation; assay type: cell-based
[2] = Equilibrium solubility in pH 7.0 phosphate buffer by LC/MS method; assay type: physicochemical
[3] = biological target: Voltage-gated inwardly rectifying potassium channel KCNH2 (Homo sapiens, UniProt Q12809); assay: Inhibition of human ERG by patch clamp assay
Chain of Voltage-gated inwardly rectifying potassium channel KCNH2 (Q12809 whole entry): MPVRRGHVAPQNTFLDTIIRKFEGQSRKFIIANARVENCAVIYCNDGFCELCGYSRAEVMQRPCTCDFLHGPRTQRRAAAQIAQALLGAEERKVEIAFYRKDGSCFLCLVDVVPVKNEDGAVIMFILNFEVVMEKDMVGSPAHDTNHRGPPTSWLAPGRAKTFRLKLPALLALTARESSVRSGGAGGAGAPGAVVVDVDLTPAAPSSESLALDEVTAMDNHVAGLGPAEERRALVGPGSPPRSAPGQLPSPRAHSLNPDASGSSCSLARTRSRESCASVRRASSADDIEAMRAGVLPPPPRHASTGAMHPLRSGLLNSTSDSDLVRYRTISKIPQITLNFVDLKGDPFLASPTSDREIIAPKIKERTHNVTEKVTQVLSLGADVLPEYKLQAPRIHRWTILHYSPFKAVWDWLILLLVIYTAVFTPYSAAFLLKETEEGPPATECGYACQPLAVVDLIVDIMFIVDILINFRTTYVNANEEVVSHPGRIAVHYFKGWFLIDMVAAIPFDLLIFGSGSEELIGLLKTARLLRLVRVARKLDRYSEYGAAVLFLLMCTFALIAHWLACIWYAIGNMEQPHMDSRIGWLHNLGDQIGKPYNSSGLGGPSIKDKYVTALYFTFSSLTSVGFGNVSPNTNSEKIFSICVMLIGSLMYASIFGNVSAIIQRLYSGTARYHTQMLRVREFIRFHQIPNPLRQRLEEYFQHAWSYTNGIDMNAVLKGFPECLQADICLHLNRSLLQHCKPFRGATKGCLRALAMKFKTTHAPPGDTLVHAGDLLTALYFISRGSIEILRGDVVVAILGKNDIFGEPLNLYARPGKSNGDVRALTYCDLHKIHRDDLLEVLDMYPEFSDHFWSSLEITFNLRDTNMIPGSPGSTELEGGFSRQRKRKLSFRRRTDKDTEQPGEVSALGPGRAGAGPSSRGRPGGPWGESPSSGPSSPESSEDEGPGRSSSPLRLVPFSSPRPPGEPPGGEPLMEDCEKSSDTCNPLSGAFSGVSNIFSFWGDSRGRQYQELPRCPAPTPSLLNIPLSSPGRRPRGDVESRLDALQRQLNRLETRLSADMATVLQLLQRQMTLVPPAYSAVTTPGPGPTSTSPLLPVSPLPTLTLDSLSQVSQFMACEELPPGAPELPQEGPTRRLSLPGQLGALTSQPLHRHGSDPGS

Cathepsin S [4] = biological target: T1, Cathepsin S; assay: Inhibition of human cathepsin S

T1 sequence (P25774 whole entry): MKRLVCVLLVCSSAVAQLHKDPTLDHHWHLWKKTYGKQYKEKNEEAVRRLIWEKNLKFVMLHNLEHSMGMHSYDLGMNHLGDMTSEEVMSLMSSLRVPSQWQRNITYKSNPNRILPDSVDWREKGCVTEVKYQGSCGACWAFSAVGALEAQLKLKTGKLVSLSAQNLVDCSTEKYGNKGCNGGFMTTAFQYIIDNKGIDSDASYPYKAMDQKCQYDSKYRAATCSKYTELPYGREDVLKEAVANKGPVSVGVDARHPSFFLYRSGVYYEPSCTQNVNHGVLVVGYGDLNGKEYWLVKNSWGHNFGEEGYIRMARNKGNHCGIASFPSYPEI

IC50 (Cathepsin S [1]) | solubility thermodynamic [2] | IC50 (Cathepsin S [4]) | SMILES | inhibition (INH) [3]
> 10000 nM | – | – | NC(=O)N1CCc2c(c(-c3ccc(Cl)c(C#Cc4ccc(C(=O)NCc5ccc(Cl)cc5)cc4)c3)nn2CCCN2CCSCC2)C1 | –
510 nM | – | – | NC(=O)N1CCc2c(c(-c3ccc(Cl)c(C#Cc4ccc(Cl)c(C(=O)NCC5CCCNC5)c4)c3)nn2CCCN2CCSCC2)C1 (racemic) | –
300 nM | – | – | NC(=O)C(=O)N1CCc2c(c(-c3ccc(Cl)c(C#Cc4ccc(CNCc5ccc(Cl)cc5)cc4)c3)nn2CCCN2CCCCC2)C1 | –
560 nM | < 1 µM | 10 nM | NC(=O)C(=O)N1CCc2c(c(-c3ccc(Cl)c(C#Cc4ccc(CNCc5ccc(Cl)cc5)cc4)c3)nn2CCCN2CCN(c3ccccc3)CC2)C1 | –
690 nM | < 1 µM | 60 nM | NC(=O)N1CCc2c(c(-c3ccc(Cl)c(C#Cc4ccc(CNCc5ccc(Cl)cc5)cc4)c3)nn2CCCN2CCC(C(F)(F)F)CC2)C1 | –
– | < 1 µM | – | CS(=O)(=O)N1CCc2c(c(-c3ccc(Cl)c(C#Cc4ccc(CNCc5ccc(Cl)cc5)cc4)c3)nn2CCCN2CCOCC2)C1 | –
5000 nM | – | – | CN(C)S(=O)(=O)N1CCc2c(c(-c3ccc(Cl)c(C#Cc4ccc(CNCc5ccc(Cl)cc5)cc4)c3)nn2CCCN2CCOCC2)C1 | –
710 nM | – | – | NC(=O)N1CCc2c(c(-c3ccc(Cl)c(C#Cc4ccc(CNCc5ccc(Cl)cc5)cc4)c3)nn2CCCN2CCN(c3ccccc3)CC2)C1 | –
1750 nM | < 1 µM | – | CN(C)C(=O)C(=O)N1CCc2c(c(-c3ccc(Cl)c(C#Cc4ccc(CNCc5ccc(Cl)cc5)cc4)c3)nn2CCCN2CCOCC2)C1 | –
870 nM | < 1 µM | 70 nM | NC(=O)N1CCc2c(c(-c3ccc(Cl)c(C#Cc4ccc(CNCc5ccc(Cl)cc5)cc4)c3)nn2CCCN2CCSCC2)C1 | Not Active
510 nM | < 1 µM | 60 nM | NC(=O)C(=O)N1CCc2c(c(-c3ccc(Cl)c(C#Cc4ccc(CNCc5ccc(Cl)cc5)cc4)c3)nn2CCCN2CCOCC2)C1 | –
1770 nM | < 1 µM | – | NC(=O)C(=O)N1CCc2c(c(-c3ccc(Cl)c(C#Cc4ccc(CNCc5ccc(Cl)cc5)cc4)c3)nn2CCCN2CCC(C(F)(F)F)CC2)C1 | –
> 10000 nM | 81 µM (≈ 52.3 µg/mL) | – | NC(=O)N1CCc2c(c(-c3ccc(Cl)c(C#Cc4ccc(C(=O)NC[C@@H]5CCCN5)cc4)c3)nn2CCCN2CCSCC2)C1 | –
440 nM | – | – | NC(=O)N1CCc2c(c(-c3ccc(Cl)c(C#Cc4ccc(CNCc5ccc(Cl)cc5)cc4)c3)nn2CCCN2CCOCC2)C1 | –
630 nM | 66 µM (≈ 44 µg/mL) | – | NC(=O)N1CCc2c(c(-c3ccc(Cl)c(C#Cc4ccc(Cl)c(C(=O)N5CCNCC5)c4)c3)nn2CCCN2CCSCC2)C1 | –

More lines, now with the values behind:

SMILES | IC50 (Cathepsin S [1]) | solubility thermodynamic [2] | IC50 (Cathepsin S [4]) | inhibition (INH) [3]
C[C@@H]1COCCN1CCCn1nc(-c2ccc(Cl)c(C#Cc3ccc(CNCc4ccc(Cl)cc4)cc3)c2)c2c1CCN(C(=O)C(N)=O)C2 | 960 nM | < 1 µM | 50 nM | Not Active
NC(=O)N1CCc2c(c(-c3ccc(Cl)c(C#Cc4ccc(C(=O)NCc5cccnc5)cc4)c3)nn2CCCN2CCSCC2)C1 | > 10000 nM | – | – | –
NC(=O)C(=O)N1CCc2c(c(-c3ccc(Cl)c(C#Cc4ccc(CNCc5ccc(Cl)cc5)cc4)c3)nn2CCCN2CCSCC2)C1 | 270 nM | < 1 µM | – | –
C[C@@H]1COCCN1CCCn1nc(-c2ccc(Cl)c(C#Cc3ccc(CNCc4ccc(Cl)cc4)cc3)c2)c2c1CCN(C(N)=O)C2 | 1540 nM | 3 µM (≈ 2.02 µg/mL) | 110 nM | –
CC(=O)NCC(=O)N1CCc2c(c(-c3ccc(Cl)c(C#Cc4ccc(CNCc5ccc(Cl)cc5)cc4)c3)nn2CCCN2CCOCC2)C1 | 1100 nM | – | – | –
NC(=O)N1CCc2c(c(-c3ccc(Cl)c(C#Cc4ccc(COCC5CNCCO5)cc4)c3)nn2CCCN2CCSCC2)C1 (racemic) | > 10000 nM | 46 µM (≈ 29.9 µg/mL) | – | –
NC(=O)C(=O)N1CCc2c(c(-c3ccc(C(F)(F)F)c(SCCN4CCC(F)CC4)c3)nn2C[C@@H](O)CN2CCCCC2)C1 | – | < 1 µM | – | –
NC(=O)N1CCc2c(c(-c3ccc(Cl)c(C#Cc4ccc(Cl)c(C(=O)NCCN5CCOCC5)c4)c3)nn2CCCN2CCSCC2)C1 | 610 nM | 9 µM (≈ 6.4 µg/mL) | – | –
NC(=O)N1CCc2c(c(-c3ccc(Cl)c(C#Cc4ccc(CNCc5ccc(Cl)cc5)cc4)c3)nn2CCCN2CCCCC2)C1 | 200 nM | – | – | –
NC(=O)N1CCc2c(c(-c3ccc(Cl)c(C#Cc4ccc(Cl)c(C(=O)NC[C@@H]5CCCN5)c4)c3)nn2CCCN2CCSCC2)C1 | 620 nM | 175 µM (≈ 119 µg/mL) | – | –
NC(=O)N1CCc2c(c(-c3ccc(Cl)c(C#Cc4ccc(COCc5cccnc5)cc4)c3)nn2CCCN2CCSCC2)C1 | > 10000 nM | – | – | –
